Measured values reported in patent US20060135587A1, “Method and compounds for promoting healing and reducing inflammation” (priority 2002, published 2006).
Read-outs that look alike come from different tables or passages of the source. Marks after values point to notes of the source that are not given here.

Key:
[1] = tested on: lesions of the gastric mucosa; test: Gastric lesions induced by immobilization and hypothermia; format: in vivo, rats; parameters: % reduction of degree of ulceration / % reduction of ulcerated area: concentration or dose not given beside the values; settings: Protective effect, 30 minutes before the test
Protocol: (§1) The models used gastric ulcers induced by
b) Immobilization and hypothermia (induced by water cooling);
(§2) The compounds were administered intraperitoneally at a dose of 20 mg/kg; in the cryogenic ulcer model compound 2 was administered either intraperitoneally (10 mg/kg) or orally (20 mg/kg twice daily, ie. a total of 40 mg/kg/day) and was compared to orally-administered gastrocepin (1 mg/kg twice daily, ie. a total of 2 mg/kg/day).

[2] = tested on: acute Con A-induced inflammation; test: Acute Con A-induced inflammation (paw oedema) in mice; format: in vivo
Protocol: Saline solution was similarly administered to the control animals. There were 10 mice in each group. After one hour, con A at a dose of 100 mkg/20 g of body weight was administered by sub-plantar injection into the plantar aponeurosis of the left paws of mice of both the experimental and control groups. The same amount of saline splution was injected into the contralateral paws. After one hour, the mice were killed and the experimental and control paws were weighed to assess the reaction index of the inflammation in the ankle-joint (Liubimov et al, 1999).
The anti-inflammatory effect of Compound 2 and Compound 7 was compared in male mice weighing 18-22 g, using the model described in Example 9. The ED50, i.e. the dose reducing paw ooedema by 50% one hour after injection of Concanavalin A, was calculated.

rats = test: Acute toxicity (LD50) in rats; format: in vivo
From the text: It is contemplated that in clinical use, treatment using oral tablets will take two to three weeks, with each patient receiving three tablets containing 0.6 g active compound per day.

[3] = tested on: neurogenic dystrophy of the myocardium; test: Myocardial infarction model (electrostimulation), enzymes in rabbit myocardium; format: in vivo, rabbits; settings: 10 mg/kg; 48 hours after electrostimulation
From the text: The effect of Compound 2 on myocardial tissue in an experimental model of myocardial infarction was examined. In this model system neurogenic dystrophy of the myocardium was induced in rats or rabbits by electrical stimulation of the reflexogenic zone of the aortic arch by implanted electrodes for a period of three hours. […] These changes are accompanied by changes in biochemical indicators such as creatine phosphate, cAMP, and calcium ion concentrations, and changes in the activity of redox enzymes such as succinate dehydrogenase, lactate dehydrogenase, and glucose-6-phosphate dehydrogenase. At a later stage organic lesions of the myocardium such as necrotic and fibrosclerotic foci can be observed.
The effect of Compound 2 given intraperitoneally or orally on these indicators was examined in rats and rabbits following electrostimulation as described above. The effects on levels of creatine phosphate in rat myocardial are shown in Table 19, and the effects on adenosine triphosphatase (ATPase), succinate dehydrogenase and glucose-6-phosphate dehydrogenase rabbit myocardium are shown in Table 20. The effects on cAMP and Ca^++ levels in rabbit myocardial tissue are shown in FIG. 5, and effects on creatine kinase in rabbit myocardium and blood and the levels of creatine phosphate in myocardium are shown in FIG. 6.

[4] = tested on: aseptic full-thickness skin wounds; test: Healing of aseptic full-thickness skin wounds in rats, topical treatment; format: in vivo
From the text: To heal successfully, wounds should be treated with regard to specific features of the various stages of healing process of the wound (Kuzin et al, 1981). The wound-healing effect of salts of N-substituted 1,3-dialkyl-4,5-bis(carbamoyl)imidazolium derivatives was studied in a model of aseptic full-thickness skin wounds in rats (Zapadnyuk et al, 1983). The effect of 10% 1-ethyl-3-methyl-4,5-bis(N-methylcarbamoyl)imidazolium benzensulfonate in a lanolin ointment base was compared to that of Solcoseryl gel and Spasatel balm.
Aseptic full-thickness skin wounds were created in rats under light ether anaesthesia. At a site on the animal's back where the animal could not lick the wound, the skin was shaved, and a circular piece of skin approximately 2.5 cm^2 area was excised with scissors. Following recovery from anaesthesia the animals were kept in separate cages, with normal food and water ad libitum. A total of 100 rats weighing from 200 to 250 g were used, with 20 rats in each group. The groups were as follows:
Treatment was performed 24 hours after the wounding by applying […] once a day in a proportion of 80 mg of ointment per 1 cm^2 of the wound area (8 mg of substance per 1 cm^2) and then daily until healing was complete.
Animals were examined at 5, 10, 15 and 20 days for the following parameters; wound size and wound healing time; weight gain, peripheral blood indicators (total leucocyte count, differential leucocyte count, and erythrocyte sedimentation rate); and biochemical serum indicators (total protein, albumin, globulin, and globulin fractions); and macroscopic and microscopic assessment of wounds. The average complete wound healing period was 16.8±1.9 days for Compound 2, compared to 23.5±2.2 days for Spasatel and 24.0±2.4 days for Solcoseryl.
For measurement of wound size, a sterile object plate was laid over the wound, and its contour was outlined with a marker. The wounds were photographed, the wound outlines were scanned, and their area was calculated using an in-house computer program.

[5] = tested on: lesions of the gastric mucosa; test: Gastric lesions induced by electrostimulation of immobilised rats; format: in vivo
Protocol: as §1
a) Electrostimulation of immobilised rats for 3 hours;
as §2

[6] = Table 4, 0.005M dose (Compound 2 19 mg/kg, Compound 7 16.4 mg/kg) + Con A
[7] = Table 4, 0.01M dose (Compound 2 38 mg/kg, Compound 7 32 mg/kg) + Con A
[8] = Table 4, 0.015M dose (Compound 2 57 mg/kg, Compound 7 49 mg/kg) + Con A
[9] = Table 4, 0.02M dose (Compound 2 76 mg/kg, Compound 7 65.6 mg/kg) + Con A
[10] = Healing effect over the course of 3 days
[11] = Protective effect, 30 minutes before the test

Protocol for white male mice: The acute toxicity of 1,3-dialkyl-4,5-bis (N-methylcarbamoyl)imidazolium salts was assessed following intraperitoneal injection into 200 white male mice weighing 18 to 20 g. Dead animals were counted daily after the administration of the test substance.

Structure (SMILES): CC[n+]1cn(C)c(C(=O)NC)c1C(=O)NC.O=S(=O)([O-])c1ccccc1 [Compound 2, 1-methyl-3-ethyl-4,5-bis(N-methylcarbamoyl)-imidazolium benzenesulfonate]
- % reduction of degree of ulceration [1]: 64%
- % reduction of ulcerated area [1]: 62%
- Area of lesion [1]: 4.1 ± 0.8
- Average number of lesions per animal ([1]; 20 mg/kg intraperitoneally): 4.1 ± 0.9
- Reaction index (%) ([2]; Table 3, 10 mg/kg intra-peritoneally one hour before Con A, male CBA mice): 10.4 ± 2.0 %
- Reaction index (%) ([2]; Table 3, 50 mg/kg intra-peritoneally one hour before Con A, male CBA mice): 8.4 ± 0.9 %
- Paw oedema reduction (%) [2, 6]: 66%
- Reaction index (%) [2, 6]: 5.4 ± 2.0%
- Paw oedema reduction (%) [2, 7]: 52%
- Reaction index (%) [2, 7]: 7.7 ± 1.8%
- Paw oedema reduction (%) ([2]; Table 4, 10 mg/kg + Con A): 33%
- Reaction index (%) ([2]; Table 4, 10 mg/kg + Con A): 11.1 ± 3.5%
- Paw oedema reduction (%) [2, 8]: 66%
- Reaction index (%) [2, 8]: 5.3 ± 2.0%
- Paw oedema reduction (%) [2, 9]: 77%
- Reaction index (%) [2, 9]: 3.3 ± 2.0%
- ED50, dose reducing paw oedema by 50% one hour after injection of Concanavalin A ([2]; male mice): 33 mg/kg
- LD50 (rats; given intraperitoneally): 1210 mg/kg
- LD50 (rats; oral administration): more than 20000 mg/kg
- LD50 (white male mice; intraperitoneal injection, white male mice, 14 days observation): 764 mg/kg
- LD50 (white male mice; mice, given intraperitoneally, text b404): 1920 mg/kg
- ATPase [3]: 0.47 ± 0.13 µM/mg/min
- Glucose-6-phosphate dehydrogenase (optical density units) [3]: 6.2 ± 0.7 optical density units
- Succinate dehydrogenase (optical density units) [3]: 44.2 ± 6.7 optical density units
- Wound area (% of area before treatment) ([4]; 5th day, topical, test compound as 10% ointment): 84.0%
- wound area on the fifteenth day ([4]; 10% Compound 2 ointment): 0.4%
- Wound area (% of area before treatment) ([4]; 10th day, topical, test compound as 10% ointment): 8.1%
- Wound area (% of area before treatment) ([4]; 15th day, topical, test compound as 10% ointment): 0.4%
- Wound area (% of area before treatment) ([4]; 20th day, topical, test compound as 10% ointment): 0.1%
- Epithelialization (duration in days) ([4]; Table 8, topical once a day, Compound 2 as 10% ointment in lanolin): 16.8 ± 1.9*^.** days
- Epithelialization period ([4]; Table 10, topical, test compound as 10% ointment): 16.8 ± 1.9
- average complete wound healing period ([4]; text b167): 16.8 ± 1.9 days
- % reduction of degree of ulceration [5, 10]: 50%
- Average number of lesions per animal [5, 10]: 1.7 ± 0.2
- % reduction of degree of ulceration [5, 11]: 66%
- % reduction of ulcerated area [5, 11]: 91%
- Area of lesion [5, 11]: 2.8 ± 2.1
- Average number of lesions per animal ([5]; Protective effect, 30 minutes before the test, 20 mg/kg intraperitoneally): 2.4 ± 0.8
